In brackets after ≈: the same amount, converted by molar mass. Activity calls are given as the source filed them. The rule behind the calls is not given here.
Assays:
[1] = test system: Tetranychus urticae; assay: Pesticidal activity against two spotted spider mite at 400 ppm; assay type: functional
[2] = test system: Spodoptera eridania; assay: Pesticidal activity against southern armyworm at 5000 ppm; assay type: functional, organism-based
[3] = test system: A549; assay: Cytotoxicity against human A549 cells; assay type: functional; conditions: read-out: ED50 (the source's name)
[4] = test system: Artemia; assay: Toxicity against brine shrimp; assay type: organism-based; conditions: in vivo
[5] = test system: Haemonchus contortus; assay: Nematicidal activity against Haemonchus contortus; assay type: functional
[6] = test system: Calliphoridae; assay: Pesticidal activity against blowfly; assay type: functional
[7] = test system: Agrobacterium tumefaciens; assay: Antitumor activity against Agrobacterium tumefaciens-induced crown gall tumors in potato tuber by potato disk test; assay type: functional
[8] = test system: HT-29; assay: Cytotoxicity against human HT-29 cells; assay type: functional; conditions: read-out: ED50 (the source's name)
[9] = test system: MCF7; assay: Cytotoxicity against human MCF7 cells; assay type: functional; conditions: read-out: ED50 (the source's name)
[10] = test system: Aphis gossypii; assay: Pesticidal activity against melon aphid at 10 ppm; assay type: functional
[11] = test system: Culicidae; assay: Pesticidal activity against mosquito larvae at 10 ppm; assay type: functional
[12] = test system: Diabrotica undecimpunctata; assay: Pesticidal activity against southern corn rootworm at 300 ppm; assay type: functional, organism-based; conditions: howardi
[13] = test system: Aphis gossypii; assay: Pesticidal activity against melon aphid at 400 ppm; assay type: functional

Row | SMILES | Activity [1] | Activity [2] | EC50 [3] | LC50 [4] | Activity [5] | Activity [6] | inhibition (INH) [7] | EC50 [8] | EC50 [9] | Activity [10] | Activity [11] | Activity [12] | Activity [13]
1 | C=CCCCCCCCCC/C=C1\CC(CO)OC1=O (centres undefined) [MAJORENOLIDE] | 0% | inactive | 1.7 µg/mL (≈ 6.06 µM) | 0.36 ppm | 0.1% | 1% | 86% | 2.61 µg/mL (≈ 9.31 µM) | 2.58 µg/mL (≈ 9.2 µM) | 80% | 20% | inactive | 
2 | C#CCCCCCCCCC/C=C1\CC(CO)OC1=O (centres undefined) [MAJORYNOLIDE] | 0% | inactive | 4.64 µg/mL (≈ 16.7 µM) | 0.89 ppm | 0.1% | 1% | 46% | 13.8 µg/mL (≈ 49.6 µM) | 9.56 µg/mL (≈ 34.3 µM) |  | 0% | inactive | 0%

— ChEMBL document CHEMBL1150176, “Majorenolide and majorynolide: a new pair of cytotoxic and pesticidal alkene-alkyne delta-lactones from Persea major” (J Nat Prod, 1989)
